Experimental data as given in patent US5635502A, “Mercaptoacetylamide bicyclic lactam derivatives useful as inhibitors of enkephalinase and ACE” (Merrell Pharmaceuticals Inc., priority 1995, dated 1997).
Where a SMILES comes first, the peptide text is derived from it. [ ]: non-standard residue; d: D form. The star is where a group is joined. Phe(4-NO2) = N[C@@H](Cc1ccc([N+](=O)[O-])cc1)C(=O)O; Dansyl = CN(C)c1cccc2c(S(=O)(=O)*)cccc12

Target: T1, Enkephalinase (endopeptidase-24.11) partially purified from rat kidney (Rattus norvegicus, UniProt P07861)
T1 construct: Enkephalinase is partially purified from rat kidney; from tissue; host or cells: rat kidney, microvilli fraction
T1 sequence (P07861 1-750): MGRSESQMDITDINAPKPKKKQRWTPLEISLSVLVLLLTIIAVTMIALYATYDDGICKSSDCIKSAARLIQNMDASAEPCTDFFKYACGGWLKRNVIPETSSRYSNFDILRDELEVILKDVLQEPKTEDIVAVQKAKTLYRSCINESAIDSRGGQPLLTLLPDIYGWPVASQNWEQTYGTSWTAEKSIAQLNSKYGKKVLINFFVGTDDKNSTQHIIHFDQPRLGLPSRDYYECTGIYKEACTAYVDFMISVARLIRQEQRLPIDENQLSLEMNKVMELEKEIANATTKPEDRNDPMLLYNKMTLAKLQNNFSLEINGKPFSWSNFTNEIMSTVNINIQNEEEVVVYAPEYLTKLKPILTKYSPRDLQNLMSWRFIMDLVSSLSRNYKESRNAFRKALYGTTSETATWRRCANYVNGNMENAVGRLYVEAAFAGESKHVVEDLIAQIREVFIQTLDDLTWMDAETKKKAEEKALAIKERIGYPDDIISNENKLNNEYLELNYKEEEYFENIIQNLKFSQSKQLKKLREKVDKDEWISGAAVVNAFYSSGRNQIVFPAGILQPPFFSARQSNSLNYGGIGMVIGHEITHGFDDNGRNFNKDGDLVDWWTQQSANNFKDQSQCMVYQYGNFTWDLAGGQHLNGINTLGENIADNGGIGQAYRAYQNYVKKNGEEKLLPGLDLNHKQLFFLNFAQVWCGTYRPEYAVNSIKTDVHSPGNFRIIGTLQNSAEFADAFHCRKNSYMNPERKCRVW
Assay: Enkephalinase fluorometric assay with substrate dansyl-D-AlaGly(p-nitro)PheGly
Type: biochemical
Details: substrate of enkephalinase; 50 mM HEPES buffer pH 7.4, 25° C.
Description: Enkephalinase is partially purified from rat kidney. The enzyme is extracted from the microvilli fraction by using Triton X-100 according to the method of Malfroy and Schwartz [J. Biol. Chem. 259, 14365-14370 (1984)] or by using a proteolytic treatment according to the method of Almenoff and Orlowski [Biochem. 22, 590-599 (1983)]. The enzyme is further purified by anion exchange chromatography (Mono Q™ column, Pharmacia) using a Pharmacia FPLC system. The enzyme activity may be measured by the fluorometric methods of Florentin et al. [Anal. Biochem. 141, 62-69 (1984)] or of Almenoff and Orlowski [J. Neurochemistry 42, 151-157 (1984)]. The enzyme is assayed in 50 mM HEPES buffer (pH 7.4) in a 3.0 mL reaction volume containing 12 μM of the substrate dansyl-D-AlaGly(p-nitro)PheGly (Km =40 μM) at 25° C. The substrate (and inhibitor) is added from a concentrated stock solution in DMSO (up to 0.1 mL DMSO final volume). The enzyme in a small volume (approximately 0.1 μg of FPLC purified protein) is added to initiate the reaction and the rate of fluorescence increase is recorded continuously using a fluorometer (excitation at 339 nm, emission at 562 nm).

Km: 40 µM
Compound: C[C@@H](NS(=O)(=O)c1cccc2c(N(C)C)cccc12)C(=O)NCC(=O)N[C@@H](Cc1ccc([N+](=O)[O-])cc1)C(=O)NCC(=O)O [dansyl-D-AlaGly(p-nitro)PheGly] (Dansyl-[dA]G[Phe(4-NO2)]G-OH)
